Reference: US7893288B2, “Poly-halogenated triazapentadiene compositions” (Board of Regents, The University of Texas System, priority 2007, dated 2011)
Values joined by “and” are separate entries in the source; they are usually repeats but may differ in a detail not shown here. Equal entries are not always repeated. Marks after values point to notes of the source that are not given here.

How the values were obtained:
Format in all cases: cell-based
[1] = tested on: Pseudomonas aeruginosa PAO1; experiment: Minimum inhibitory concentration in LB broth, P. aeruginosa; settings: for Relative to AgNO3: efficacy per mole from MIC values
Escherichia coli HB101 [2] = experiment: Disk sensitivity test (modified Kirby-Bauer), E. coli;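 note: filter disk loaded with compound in DMSO laid on an LB agar bacterial lawn, kept overnight at 37 °C, then the inhibition zone around the disk is measured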
Method: (§1) Filter disks were provided as sterile filter paper (about 6 mm in diameter) and spotted with 20 μL of a selected compound. Each compound was initially dissolved in dimethylsulfoxide (DMSO); any subsequent dilutions were also made in DMSO. Each filter was placed on an LB agar plate spread with 100 μL of a bacterial culture that had been grown overnight in suitable LB broth. Plates were incubated overnight at 37° C., after which, the extent of growth inhibition around each filter disk was measured. Bacterial strains included Staphylococcus aureus (ATCC 25923), Pseudomonas aeruginosa PAO1, Bacillus subtilis W168 and Escherichia coli HB101. […] The latter two strains are non-pathogenic Gram-positive and Gram-negative bacterial strains, respectively.

[3] = tested on: Pseudomonas aeruginosa PAO1; experiment: Disk sensitivity test (modified Kirby-Bauer), P. aeruginosa;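 note: Compound-loaded filter disks on LB agar lawns, DMSO as solvent, zone of inhibition around each disk read after overnight incubation at 37 °C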
Method: as §1

Escherichia coli HB101 [4] = experiment: Minimum inhibitory concentration in LB broth, E. coli; settings: for Relative to AgNO3: efficacy per mole from MIC values;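 for all read-outs here: broth dilution MIC, test compounds first taken up in DMSO, then serially diluted in LB medium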
[5] = tested on: Gram positive and Gram negative bacteria; experiment: Antimicrobial activity, summary of TABLES 16-18
Method: The new class of fluorinated triazapentadiene compounds with and without metal complexation as described herein were analyzed for antibacterial activity against several bacterial strains (both Gram positive and Gram negative). Methods for antimicrobial analysis included a modified Kirby-Bauer method and a determination of their minimum inhibitory concentrations. In brief, the modified Kirby-Bauer method relied on placement of a filter disk impregnated with a desired compound on a solid growth medium. Bacteria were grown to a confluent lawn and the extent of growth inhibition was measured (e.g., as an extent/percentage of a clear zone on the disk and/or solid medium).
For MIC assessment, compounds were initially dissolved in DMSO and serial dilutions of soluble compounds were made in LB broth.

[6] = tested on: Staphylococcus aureus (ATCC 25923); experiment: Minimum inhibitory concentration in LB broth, S. aureus; settings: for Relative to AgNO3: efficacy per mole from MIC values
Bacillus subtilis W168 [7] = experiment: Minimum inhibitory concentration in LB broth, B. subtilis; settings: for Relative to AgNO3: efficacy per mole from MIC values
Bacillus subtilis W168 [8] = experiment: Disk sensitivity test (modified Kirby-Bauer), B. subtilis;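 note: Compound-loaded filter disks on LB agar plates seeded with a bacterial lawn, plates held overnight at 37 °C, then the clear zone around each disk measured, compounds in DMSO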
Method: as §1

[9] = tested on: Staphylococcus aureus (ATCC 25923); experiment: Disk sensitivity test (modified Kirby-Bauer), S. aureus;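 note: Compound-loaded filter disks on LB agar plates seeded with a confluent bacterial lawn, compound dissolved in DMSO, plates kept overnight at 37 °C, then inhibition zone around disk measured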
Method: as §1

## Fc1c(F)c(F)c(N=C(N=C([N]([Ag])c2c(F)c(F)c(F)c(F)c2F)C(F)(F)C(F)(F)C(F)(F)F)C(F)(F)C(F)(F)C(F)(F)F)c(F)c1F [[N{(C3F7)C(C6F5)N}2]Ag]
[1]
  MIC: 23.69 μg/ml and 2.80 × 10^−2 mM
  sensitivity of the bacteria to the compound (in words): most sensitive
  Relative to AgNO3: 6.57 × 10^−1
Escherichia coli HB101 [2]; 5.7 × 10^0 mM
  Diameter of the zone of growth inhibition: 14.0 mm
Escherichia coli HB101 [2]; 5.7 × 10^1 mM
  Diameter of the zone of growth inhibition: 18.0 mm
Escherichia coli HB101 [2]; 5.7 × 10^−1 mM
  Diameter of the zone of growth inhibition: 11.0 mm
Escherichia coli HB101 [2]; 5.7 × 10^−2 mM
  Diameter of the zone of growth inhibition: 8.5 mm
Escherichia coli HB101 [2]; 5.7 × 10^−3 mM
  Diameter of the zone of growth inhibition: 8.0 mm
Escherichia coli HB101 [2]; 5.7 × 10^−4 mM
  Diameter of the zone of growth inhibition: 6.0 (NZ) mm
Escherichia coli HB101 [2]; 5.7 × 10^−5 mM
  Diameter of the zone of growth inhibition: 6.0 (NZ) mm
Escherichia coli HB101 [2]; 5.7 × 10^−6 mM
  Diameter of the zone of growth inhibition: 6.0 (NZ) mm
[3]; 5.7 × 10^0 mM
  Diameter of the zone of growth inhibition: 16.5 mm
[3]; 5.7 × 10^1 mM
  Diameter of the zone of growth inhibition: 27.0 mm
[3]; 5.7 × 10^−1 mM
  Diameter of the zone of growth inhibition: 12.0 mm
[3]; 5.7 × 10^−2 mM
  Diameter of the zone of growth inhibition: 8.0 mm
[3]; 5.7 × 10^−3 mM
  Diameter of the zone of growth inhibition: 7.5 mm
[3]; 5.7 × 10^−4 mM
  Diameter of the zone of growth inhibition: 6.0 (NZ) mm
[3]; 5.7 × 10^−5 mM
  Diameter of the zone of growth inhibition: 6.0 (NZ) mm
[3]; 5.7 × 10^−6 mM
  Diameter of the zone of growth inhibition: 6.0 (NZ) mm
Escherichia coli HB101 [4]
  MIC: 23.69 μg/ml and 2.80 × 10^−2 mM
  sensitivity of the bacteria to the compound (in words): most sensitive
  Relative to AgNO3: 2.10
[5]
  antimicrobial activity (in words): Effective
[6]
  MIC: 1.80 μg/ml and 2.13 × 10^−3 mM
  Relative to AgNO3: 34.45
Bacillus subtilis W168 [7]
  MIC: 1.80 μg/ml and 2.13 × 10^−3 mM
  Relative to AgNO3: 69.01
Bacillus subtilis W168 [8]; 5.7 × 10^0 mM
  Diameter of the zone of growth inhibition: 37.0 mm
Bacillus subtilis W168 [8]; 5.7 × 10^1 mM
  Diameter of the zone of growth inhibition: 47.0 mm
Bacillus subtilis W168 [8]; 5.7 × 10^−1 mM
  Diameter of the zone of growth inhibition: 38.0 mm
Bacillus subtilis W168 [8]; 5.7 × 10^−2 mM
  Diameter of the zone of growth inhibition: 22.0 mm
Bacillus subtilis W168 [8]; 5.7 × 10^−3 mM
  Diameter of the zone of growth inhibition: 11.0 mm
Bacillus subtilis W168 [8]; 5.7 × 10^−4 mM
  Diameter of the zone of growth inhibition: 7.5 mm
Bacillus subtilis W168 [8]; 5.7 × 10^−5 mM
  Diameter of the zone of growth inhibition: 6.0 (NZ) mm
Bacillus subtilis W168 [8]; 5.7 × 10^−6 mM
  Diameter of the zone of growth inhibition: 6.0 (NZ) mm
[9]; 5.7 × 10^0 mM
  Diameter of the zone of growth inhibition: 33.0 mm
[9]; 5.7 × 10^1 mM
  Diameter of the zone of growth inhibition: 70.0 mm
[9]; 5.7 × 10^−1 mM
  Diameter of the zone of growth inhibition: 39.0 mm
[9]; 5.7 × 10^−2 mM
  Diameter of the zone of growth inhibition: 21.5 mm
[9]; 5.7 × 10^−3 mM
  Diameter of the zone of growth inhibition: 10.0 mm
[9]; 5.7 × 10^−4 mM
  Diameter of the zone of growth inhibition: 6.0 (NZ)^b mm
[9]; 5.7 × 10^−5 mM
  Diameter of the zone of growth inhibition: 6.0 (NZ) mm
[9]; 5.7 × 10^−6 mM
  Diameter of the zone of growth inhibition: 6.0 (NZ) mm

## Fc1cccc(C(F)(F)F)c1N=C(N=C([N]([Ag])c1c(F)cccc1C(F)(F)F)C(F)(F)C(F)(F)C(F)(F)F)C(F)(F)C(F)(F)C(F)(F)F [[N{(C3F7)C(2-F,6-CF3C6H3)N}2]Ag]
[1]
  MIC: 17.56 μg/ml and 2.1 × 10^−2 mM
  sensitivity of the bacteria to the compound (in words): most sensitive
  Relative to AgNO3: 8.76 × 10^−1
Escherichia coli HB101 [2]; 5.7 × 10^0 mM
  Diameter of the zone of growth inhibition: 12.5 mm
Escherichia coli HB101 [2]; 5.7 × 10^1 mM
  Diameter of the zone of growth inhibition: 22.0 mm
Escherichia coli HB101 [2]; 5.7 × 10^−1 mM
  Diameter of the zone of growth inhibition: 10.0 mm
Escherichia coli HB101 [2]; 5.7 × 10^−2 mM
  Diameter of the zone of growth inhibition: 9.0 mm
Escherichia coli HB101 [2]; 5.7 × 10^−3 mM
  Diameter of the zone of growth inhibition: 8.0 mm
[3]; 5.7 × 10^0 mM
  Diameter of the zone of growth inhibition: 15.0 mm
[3]; 5.7 × 10^1 mM
  Diameter of the zone of growth inhibition: 23.5 mm
[3]; 5.7 × 10^−1 mM
  Diameter of the zone of growth inhibition: 9.0 mm
[3]; 5.7 × 10^−2 mM
  Diameter of the zone of growth inhibition: 6.0 (NZ) mm
[3]; 5.7 × 10^−3 mM
  Diameter of the zone of growth inhibition: 6.0 (NZ) mm
Escherichia coli HB101 [4]
  MIC: 8.78 μg/ml and 1.00 × 10^−2 mM
  sensitivity of the bacteria to the compound (in words): most sensitive
  Relative to AgNO3: 5.89
[5]
  antimicrobial activity (in words): Effective
[6]
  MIC: 8.78 × 10^−1 μg/ml and 1.05 × 10^−3 mM
  Relative to AgNO3: 70.10
Bacillus subtilis W168 [7]
  MIC: 8.70 × 10^−2 μg/ml and 1.04 × 10^−4 mM
  Relative to AgNO3: 1413.46
Bacillus subtilis W168 [8]; 5.7 × 10^0 mM
  Diameter of the zone of growth inhibition: 131.0 mm
Bacillus subtilis W168 [8]; 5.7 × 10^1 mM
  Diameter of the zone of growth inhibition: 115.0 mm
Bacillus subtilis W168 [8]; 5.7 × 10^−1 mM
  Diameter of the zone of growth inhibition: 78.0 mm
Bacillus subtilis W168 [8]; 5.7 × 10^−2 mM
  Diameter of the zone of growth inhibition: 39.0 mm
Bacillus subtilis W168 [8]; 5.7 × 10^−3 mM
  Diameter of the zone of growth inhibition: 10.0 mm
Bacillus subtilis W168 [8]; 5.7 × 10^−4 mM
  Diameter of the zone of growth inhibition: 10.0 mm
Bacillus subtilis W168 [8]; 5.7 × 10^−5 mM
  Diameter of the zone of growth inhibition: 9.0 mm
Bacillus subtilis W168 [8]; 5.7 × 10^−6 mM
  Diameter of the zone of growth inhibition: 9.0 mm
Bacillus subtilis W168 [8]; 5.7 × 10^−7 mM
  Diameter of the zone of growth inhibition: 7.5 mm
[9]; 5.7 × 10^0 mM
  Diameter of the zone of growth inhibition: 14.0 mm
[9]; 5.7 × 10^1 mM
  Diameter of the zone of growth inhibition: 19.0 mm
[9]; 5.7 × 10^−1 mM
  Diameter of the zone of growth inhibition: 9.5 mm
[9]; 5.7 × 10^−2 mM
  Diameter of the zone of growth inhibition: 9.0 mm
[9]; 5.7 × 10^−3 mM
  Diameter of the zone of growth inhibition: 7.5 mm
[9]; 5.7 × 10^−4 mM
  Diameter of the zone of growth inhibition: 6.0 (NZ) mm
[9]; 5.7 × 10^−5 mM
  Diameter of the zone of growth inhibition: 6.0 (NZ) mm
[9]; 5.7 × 10^−6 mM
  Diameter of the zone of growth inhibition: 6.0 (NZ) mm
[9]; 5.7 × 10^−7 mM
  Diameter of the zone of growth inhibition: 6.0 (NZ) mm
